Data taken from patent US20230114107A1, “COMBINATION ANTI-CANCER THERAPIES WITH INDUCERS OF IRON-DEPENDENT CELLULAR DISASSEMBLY” (Flagship Pioneering Innovations V, Inc., priority 2019, published 2023).

Tested on: NFKB reporter in THP1-Dual cells
Experiment: NFKB reporter activity in THP1-Dual monocytes co-cultured with treated Caki-1 cells
Assay type: cell-based, human
Procedure: Caki-1 renal cell carcinoma cells were treated with either control (DMSO) or various doses of Erastin, for 24 hours prior to co-culture with THP1-Dual cells for an additional 24 hours. Erastin was purchased from Selleckchem (Houston, Tex.) and dissolved in DMSO. Subsequently, the THP1 supernatants were assessed for NFKB or IRF reporter activity. Caki-1 cells were acquired from ATCC and THP1-Dual cells acquired from InvivoGen (San Diego, Calif.). Both cell types were cultured in 96-well plates for the duration of the assay. 7,500 Caki-1 cells were plated 24 hours prior to dosing with Erastin, with a final DMSO concentration of 0.5%. 24 hours post-treatment, THP1-Dual cells (25,000 cells/well) were added to the Caki-1 cells. 24 hours later, 30 μl of supernatant was mixed with either 200 μl QuantiBlue (InvivoGen) or 50 μl QuantiLuc and absorbance or luminescence was recorded on a Molecular Devices plate reader. Caki-1 renal cell carcinoma cells were treated with either control (DMSO) or various doses of RSL3, for 24 hours prior to co-culture with THP1-Dual cells for an additional 24 hours. RSL3 was purchased from Selleckchem and dissolved in DMSO. Subsequently, the THP1 supernatants were assessed for NFKB or IRF reporter activity. Caki-1 cells were acquired from ATCC and THP1-Dual cells acquired from InvivoGen (San Diego, Calif.). Both cell types were cultured in 96-well plates for the duration of the assay. 7,500 Caki-1 cells were plated 24 hours prior to dosing with RSL3, with a final DMSO concentration of 0.5%. 24 hours post-treatment, THP1-Dual cells (25,000 cells/well) were added to the Caki-1 cells. 24 hours later, 30 μl of supernatant was mixed with either 200 μl QuantiBlue (InvivoGen, San Diego, Calif.) or 50 μl QuantiLuc and absorbance or luminescence was recorded on a Molecular Devices plate reader. […] Subsequently, the THP1 supernatant was assessed for NFKB reporter activity. Caki-1 cells were acquired from ATCC and THP1-Dual cells acquired from InvivoGen (San Diego, Calif.). Both cell types were cultured in 96-well plates for the duration of the assay.

COC(=O)c1ccc([C@H]2c3[nH]c4ccccc4c3C[C@H](C(=O)OC)N2C(=O)CCl)cc1 [RSL3] was tested, and the “NFKB signaling in THP1 monocytes” value (Caki-1 cells treated 24 hours, co-culture 24 hours, vs DMSO, FIG. 3B, 4B) was “elicited NFKB signaling in THP1 monocytes” and the “NFKB activity in THP1 cells, dose dependence” value (Caki-1 cells treated with RSL3 or ML162, FIG. 13B, 14B) was “increased NFKB activity in THP1 cells in a dose dependent manner”.
